Consider 13 compounds from ChEMBL document CHEMBL3997815, “Influence of substituent heteroatoms on the cytoprotective properties of pyrimidinol antioxidants” (Bioorg Med Chem, 2017).

Active and inactive are the calls of the source. The calls are words filed in the database; no cut-off is given here.

Series [1] deals with Lymphocyte. Put plainly: Antioxidant activity in FRDA patient derived lymphocytes assessed as inhibition of DEM-mediated lipid peroxidation at 0.1 to 2.5 uM pretreated for 16 hrs followed by DEM addition measured after 120 mins by C11-BODIPY581/591 probe-based FACS analysis. The class given is functional, cell-based. The conditions noted are these: Homo sapiens.
For series [2], the system named is Lymphocyte. Put plainly: Antioxidant activity in FRDA patient derived lymphocytes assessed as inhibition of DEM-mediated reactive oxygen species formation at 0.1 to 2.5 uM pretreated for 16 hrs followed by DEM addition measured after 80 mins by DCFH-DA dye-based flow cytometric analysis. The class given is functional, cell-based. As to conditions: Homo sapiens.

For series [3], the system named is Lymphocyte. Briefly: Cytoprotective activity in DEM-treated FRDA patient derived lymphocytes assessed as preservation of mitochondrial inner membrane potential at 2.5 uM pretreated for 16 hrs followed by DEM addition measured after 120 mins by TMRM dye-based flow cytometric analysis. The format is functional, cell-based. As to conditions: Homo sapiens.
Series [4] deals with Lymphocyte. Put plainly: Cytoprotective activity against DEM-induced oxidative stress in FRDA patient derived lymphocytes assessed as increase in cell viability at 0.1 to 2.5 uM pretreated for 16 hrs followed by DEM addition measured after 6 hrs by calcein acetoxy-methyl-ester/ethidium homodimer-1 staining-based flow cytometric analysis. As to conditions: Homo sapiens. The class given is functional.

Series [5] can be described thus: Metabolic stability in bovine liver microsomes assessed as compound recovery at 25 uM after 30 mins in presence of beta-NADPH by HPLC method. As to conditions: cattle, read-out: Drug recovery. The format is ADME, Bos taurus, microsome.
The subject of series [6] is Lymphocyte. Put plainly: Cytoprotective activity in DEM-treated FRDA patient derived lymphocytes assessed as preservation of mitochondrial inner membrane potential at 0.5 uM pretreated for 16 hrs followed by DEM addition measured after 120 mins by TMRM dye-based flow cytometric analysis. The class given is functional, cell-based. As to conditions: Homo sapiens.
Series [7] concerns Lymphocyte. Briefly: Cytoprotective activity in FRDA patient derived lymphocytes cultured in glucose-free media supplemented with galactose assessed as total intracellular ATP levels at 1 uM after 48 hrs by luciferin-luciferase reaction-based bioluminescence assay relative to control. The class given is functional, Homo sapiens.
In series [8] the test system is Lymphocyte. Briefly: Cytoprotective activity in FRDA patient derived lymphocytes cultured in glucose-free media supplemented with galactose assessed as total intracellular ATP levels at 5 uM after 48 hrs by luciferin-luciferase reaction-based bioluminescence assay relative to control. The class given is functional, Homo sapiens.
The subject of series [9] is Lymphocyte. Briefly: Cytoprotective activity in FRDA patient derived lymphocytes cultured in glucose-free media supplemented with galactose assessed as total intracellular ATP levels at 25 uM after 48 hrs by luciferin-luciferase reaction-based bioluminescence assay relative to control. The format is functional, Homo sapiens.
Series [10] relates to Lymphocyte. Briefly: Antioxidant activity in FRDA patient derived lymphocytes assessed as inhibition of DEM-mediated reactive oxygen species formation at 2.5 uM pretreated for 16 hrs followed by DEM addition measured after 80 mins by DCFH-DA dye-based flow cytometric analysis. As to conditions: Homo sapiens. The class given is functional, cell-based.
The subject of series [11] is Lymphocyte. Briefly: Cytoprotective activity against DEM-induced oxidative stress in FRDA patient derived lymphocytes assessed as increase in cell viability at 2.5 uM pretreated for 16 hrs followed by DEM addition measured after 6 hrs by calcein acetoxy-methyl-ester/ethidium homodimer-1 staining-based flow cytometric analysis. The class given is functional. The conditions noted are these: Homo sapiens.

Series [12] deals with Lymphocyte. Put plainly: Antioxidant activity in FRDA patient derived lymphocytes assessed as inhibition of DEM-mediated lipid peroxidation at 0.1 to 0.5 uM pretreated for 16 hrs followed by DEM addition measured after 120 mins by C11-BODIPY581/591 probe-based FACS analysis. The class given is functional, cell-based. The conditions noted are these: Homo sapiens.

`Cc1nc(N2CCC2)nc(OC2CCC2)c1O`: the inhibition result with Lymphocyte [1] is “inactive”.

`CCCCCCCCCCCCCCCCc1nc(OC2CCC2)nc(N2CCC2)c1O`: the inhibition result in the series on Lymphocyte [1] and in the series with Lymphocyte [2] was “Active” throughout. Further, the result in the series with Lymphocyte [3] and in the series with Lymphocyte [4] was Active. For the same compound, the remaining at 0.5 h, 25 µM in [5] was determined as 63%.

In the case of `Cc1nc(OC2CCC2)nc(OC2CCC2)c1O`, in the series on Lymphocyte [1], the inhibition result was “inactive”.

On to `CCCCCCCCCCCCCCc1nc(OC2CCC2)nc(N2CCC2)c1O`, for which the inhibition result with Lymphocyte [1] and in the series on Lymphocyte [2] was “Active” throughout. Further, the result in the series with Lymphocyte [3] and in the series with Lymphocyte [4] was Active. Besides, the remaining at 0.5 h, 25 µM in series [5] amounted to 77%.

Take `CCCCCCCCCCCCCCc1nc(N2CCC2)nc(OC2CCC2)c1O`: the inhibition result with Lymphocyte [1] and in the series with Lymphocyte [2] was “Active” each time. Further, the result with Lymphocyte [3] and in the series with Lymphocyte [4] was Active. Also, the remaining at 0.5 h, 25 µM in series [5] amounted to 63%.

Consider `COC1=C(OC)C(=O)C(CCCCCCCCCCO)=C(C)C1=O` [IDEBENONE], for which, in the series with Lymphocyte [1], the inhibition result is “Active”. The outcome in the series on Lymphocyte [3] and in the series with Lymphocyte [6] was Active. The Activity in the series on Lymphocyte [7] is listed as 98%; in the series with Lymphocyte [8] it was 73%; with Lymphocyte [9], 3%. Moreover, the remaining at 0.5 h, 25 µM in series [5] is 61%.

For `Cc1nc(N2CCC2)nc(N2CCC2)c1O`, the inhibition result with Lymphocyte [1] was “inactive”.

Turning to `Cc1nc(OC2CCC2)nc(N2CCC2)c1O`, the inhibition entry with Lymphocyte [1] was “inactive”.

Take `CCCCCCCCCCCCCCCCc1nc(N2CCC2)nc(N2CCC2)c1O`: the inhibition result with Lymphocyte [1] was “inactive”. Moreover, the result with Lymphocyte [3] and with Lymphocyte [4] was Active. Moreover, the remaining at 0.5 h, 25 µM in [5] turned out to be 62%.

Take `CCCCCCCCCCCCCCCCc1nc(N2CCC2)nc(OC2CCC2)c1O`: the inhibition result in the series with Lymphocyte [1] and in the series on Lymphocyte [2] was “Active” each time. In addition, the outcome in the series on Lymphocyte [3] and in the series on Lymphocyte [4] was Active.

As to `CCCCCCCCCCCCCCCCc1nc(OC2CCC2)nc(OC2CCC2)c1O`, the inhibition entry in the series on Lymphocyte [1] was “inactive”. For the same compound, the remaining at 0.5 h, 25 µM in series [5] was 60%.

With `CCCCCCCCCCCCCCc1nc(OC2CCC2)nc(OC2CCC2)c1O`, the inhibition result with Lymphocyte [1] and in the series on Lymphocyte [10] was “Active” each time. Also, the outcome with Lymphocyte [3] and in the series with Lymphocyte [11] was Active. Further, in series [5], the remaining at 0.5 h, 25 µM worked out at 72%. In addition, in the series with Lymphocyte [12], the inhibition result is “inactive”.

As to `CCCCCCCCCCCCCCc1nc(N2CCC2)nc(N2CCC2)c1O`, the inhibition entry with Lymphocyte [1] was “inactive”. Also, the result in the series with Lymphocyte [3] and in the series with Lymphocyte [4] was Active. Besides, the remaining at 0.5 h, 25 µM in [5] came out at 63%.
